Results: US20260250257A1, “ANTIBACTERIAL AND SYNERGISTIC ACTIVE COMPOUND AND USE THEREOF” (EAST CHINA UNIVERSITY OF SCIENCE AND TECHNOLOGY, priority 2023, published 2026)

What follows are compounds tested on ATCC13883 strain (Klebsiella pneumoniae) (assay: Checkerboard antibacterial synergistic activity test with polymyxin E (FIC)). Conditions: combined with polymyxin E.
Type: cell-based
Set-up: key: FIC≤0.5 synergy; 0.5–1 additive; 1–2 indifferent; ≥2 antagonism
Outline: (§1)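 First, two-fold series of polymyxin E (16–0.015 μg/ml) and compound (256–4 μg/ml) were made in MH broth. Next, combinations went into a 96-well grid, bacterial liquid was added, and plates sat at 37° C. for 16 h. Finally, FIC was computed and classed (≤0.5 synergistic).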

Compound | Synergistic activity (FIC value) ATCC13883
CC(C)(C)c1ccccc1-c1coc(N=C(N)N)n1 [Compound I-10] | 1.25
Cc1sc(N=C2NCCCN2)nc1-c1cc(C(C)C)cc(C(C)C)c1 [Compound I-167] | 0.25
COc1ccc(Oc2cccc(-c3csc(N=C(N)N)n3)c2)c(OC)c1 [Compound I-98] | 0.09
Cc1ccc2c(-c3coc(N=C(N)N)n3)cccc2c1 [Compound I-59] | 0.33
CNc1cc(C)cc(-c2csc(N=C(N)N)n2)c1 [Compound I-23] | 0.52
CSc1cc2cc(C)cc(C)n2c1-c1nc(N=C(N)N)oc1C [Compound I-128] | 0.16
NC(N)=Nc1nc(-c2ccc(Oc3ccccc3)cc2)cs1 [Compound I-3] | 1.25
CCc1sc(N=C2NCCCN2)nc1-c1c(SC)cc2ccc(C)cn12 [Compound I-193] | 1.25
CSc1cc2c(C)cccn2c1-c1c[se]c(N=C2NCCCN2)n1 [Compound I-191] | 0.19

The compounds below were run on ATCC19606 strain (Acinetobacter baumannii) in the same assay as above. Conditions: combined with polymyxin E.
Type: cell-based
Set-up: key: FIC≤0.5 synergy; 0.5–1 additive; 1–2 indifferent; ≥2 antagonism
Outline: as §1

Compound | Synergistic activity (FIC value) ATCC19606
CC(C)(C)c1ccccc1-c1coc(N=C(N)N)n1 [Compound I-10] | 1.25
Cc1sc(N=C2NCCCN2)nc1-c1cc(C(C)C)cc(C(C)C)c1 [Compound I-167] | 0.3
COc1ccc(Oc2cccc(-c3csc(N=C(N)N)n3)c2)c(OC)c1 [Compound I-98] | 0.31
Cc1ccc2c(-c3coc(N=C(N)N)n3)cccc2c1 [Compound I-59] | 0.15
CNc1cc(C)cc(-c2csc(N=C(N)N)n2)c1 [Compound I-23] | 0.52
CSc1cc2cc(C)cc(C)n2c1-c1nc(N=C(N)N)oc1C [Compound I-128] | 0.03
NC(N)=Nc1nc(-c2ccc(Oc3ccccc3)cc2)cs1 [Compound I-3] | 1.25
CCc1sc(N=C2NCCCN2)nc1-c1c(SC)cc2ccc(C)cn12 [Compound I-193] | 1.25
CSc1cc2c(C)cccn2c1-c1c[se]c(N=C2NCCCN2)n1 [Compound I-191] | 0.13

Each compound was assayed on ATCC25922 strain (Escherichia coli) in the same assay as above. Conditions: combined with polymyxin E.
Type: cell-based
Set-up: key: FIC≤0.5 synergy; 0.5–1 additive; 1–2 indifferent; ≥2 antagonism
Outline: as §1

Compound | Synergistic activity (FIC value) ATCC25922
CC(C)(C)c1ccccc1-c1coc(N=C(N)N)n1 [Compound I-10] | 0.5
Cc1sc(N=C2NCCCN2)nc1-c1cc(C(C)C)cc(C(C)C)c1 [Compound I-167] | 0.5
COc1ccc(Oc2cccc(-c3csc(N=C(N)N)n3)c2)c(OC)c1 [Compound I-98] | 0.14
Cc1ccc2c(-c3coc(N=C(N)N)n3)cccc2c1 [Compound I-59] | 0.39
CNc1cc(C)cc(-c2csc(N=C(N)N)n2)c1 [Compound I-23] | 0.63
CSc1cc2cc(C)cc(C)n2c1-c1nc(N=C(N)N)oc1C [Compound I-128] | 0.18
NC(N)=Nc1nc(-c2ccc(Oc3ccccc3)cc2)cs1 [Compound I-3] | 0.5
CCc1sc(N=C2NCCCN2)nc1-c1c(SC)cc2ccc(C)cn12 [Compound I-193] | 0.53
CSc1cc2c(C)cccn2c1-c1c[se]c(N=C2NCCCN2)n1 [Compound I-191] | 0.52

The compounds below were run on ATCC9027 strain (Pseudomonas aeruginosa) in the same assay as above. Conditions: combined with polymyxin E.
Type: cell-based
Set-up: key: FIC≤0.5 synergy; 0.5–1 additive; 1–2 indifferent; ≥2 antagonism
Outline: as §1

Compound | Synergistic activity (FIC value) ATCC9027
CC(C)(C)c1ccccc1-c1coc(N=C(N)N)n1 [Compound I-10] | 1.25
Cc1sc(N=C2NCCCN2)nc1-c1cc(C(C)C)cc(C(C)C)c1 [Compound I-167] | 0.63
COc1ccc(Oc2cccc(-c3csc(N=C(N)N)n3)c2)c(OC)c1 [Compound I-98] | 0.06
Cc1ccc2c(-c3coc(N=C(N)N)n3)cccc2c1 [Compound I-59] | 0.62
CNc1cc(C)cc(-c2csc(N=C(N)N)n2)c1 [Compound I-23] | 1.25
CSc1cc2cc(C)cc(C)n2c1-c1nc(N=C(N)N)oc1C [Compound I-128] | 0.28
NC(N)=Nc1nc(-c2ccc(Oc3ccccc3)cc2)cs1 [Compound I-3] | 1.25
CCc1sc(N=C2NCCCN2)nc1-c1c(SC)cc2ccc(C)cn12 [Compound I-193] | 1.25
CSc1cc2c(C)cccn2c1-c1c[se]c(N=C2NCCCN2)n1 [Compound I-191] | 0.51

Each compound was assayed on ATCC13883 strain (Klebsiella pneumoniae) (assay: Broth microdilution, antibacterial activity of the compound used alone). Conditions: not given.
Type: cell-based
Source text: (§2) The broth microdilution method was used to test the antibacterial effects of the compounds of the present invention against various Gram-negative bacterial strains when used alone.

Compound | Antibacterial activity of the compound of Formula I, ATCC13883
CC(C)(C)c1ccccc1-c1coc(N=C(N)N)n1 [Compound I-10] | 256 µg/mL
Cc1sc(N=C2NCCCN2)nc1-c1cc(C(C)C)cc(C(C)C)c1 [Compound I-167] | 256 µg/mL
COc1ccc(Oc2cccc(-c3csc(N=C(N)N)n3)c2)c(OC)c1 [Compound I-98] | 256 µg/mL
Cc1ccc2c(-c3coc(N=C(N)N)n3)cccc2c1 [Compound I-59] | 256 µg/mL
CNc1cc(C)cc(-c2csc(N=C(N)N)n2)c1 [Compound I-23] | 256 µg/mL
CSc1cc2cc(C)cc(C)n2c1-c1nc(N=C(N)N)oc1C [Compound I-128] | 256 µg/mL
NC(N)=Nc1nc(-c2ccc(Oc3ccccc3)cc2)cs1 [Compound I-3] | 256 µg/mL
CCc1sc(N=C2NCCCN2)nc1-c1c(SC)cc2ccc(C)cn12 [Compound I-193] | 256 µg/mL
CSc1cc2c(C)cccn2c1-c1c[se]c(N=C2NCCCN2)n1 [Compound I-191] | 256 µg/mL

What follows are compounds tested on ATCC19606 strain (Acinetobacter baumannii) in the same assay as above. Conditions: not given.
Type: cell-based
Source text: as §2

Compound | Antibacterial activity of the compound of Formula I, ATCC19606
CC(C)(C)c1ccccc1-c1coc(N=C(N)N)n1 [Compound I-10] | 256 µg/mL
Cc1sc(N=C2NCCCN2)nc1-c1cc(C(C)C)cc(C(C)C)c1 [Compound I-167] | 256 µg/mL
COc1ccc(Oc2cccc(-c3csc(N=C(N)N)n3)c2)c(OC)c1 [Compound I-98] | 256 µg/mL
Cc1ccc2c(-c3coc(N=C(N)N)n3)cccc2c1 [Compound I-59] | 256 µg/mL
CNc1cc(C)cc(-c2csc(N=C(N)N)n2)c1 [Compound I-23] | 256 µg/mL
CSc1cc2cc(C)cc(C)n2c1-c1nc(N=C(N)N)oc1C [Compound I-128] | 256 µg/mL
NC(N)=Nc1nc(-c2ccc(Oc3ccccc3)cc2)cs1 [Compound I-3] | 256 µg/mL
CCc1sc(N=C2NCCCN2)nc1-c1c(SC)cc2ccc(C)cn12 [Compound I-193] | 256 µg/mL
CSc1cc2c(C)cccn2c1-c1c[se]c(N=C2NCCCN2)n1 [Compound I-191] | 256 µg/mL

What follows are compounds tested on ATCC25922 strain (Escherichia coli) in the same assay as above. Conditions: not given.
Type: cell-based
Source text: as §2

Compound | Antibacterial activity of the compound of Formula I, ATCC25922
CC(C)(C)c1ccccc1-c1coc(N=C(N)N)n1 [Compound I-10] | 256 µg/mL
Cc1sc(N=C2NCCCN2)nc1-c1cc(C(C)C)cc(C(C)C)c1 [Compound I-167] | 256 µg/mL
COc1ccc(Oc2cccc(-c3csc(N=C(N)N)n3)c2)c(OC)c1 [Compound I-98] | 256 µg/mL
Cc1ccc2c(-c3coc(N=C(N)N)n3)cccc2c1 [Compound I-59] | 256 µg/mL
CNc1cc(C)cc(-c2csc(N=C(N)N)n2)c1 [Compound I-23] | 256 µg/mL
CSc1cc2cc(C)cc(C)n2c1-c1nc(N=C(N)N)oc1C [Compound I-128] | 256 µg/mL
NC(N)=Nc1nc(-c2ccc(Oc3ccccc3)cc2)cs1 [Compound I-3] | 256 µg/mL
CCc1sc(N=C2NCCCN2)nc1-c1c(SC)cc2ccc(C)cn12 [Compound I-193] | 256 µg/mL
CSc1cc2c(C)cccn2c1-c1c[se]c(N=C2NCCCN2)n1 [Compound I-191] | 256 µg/mL

What follows are compounds tested on ATCC9027 strain (Pseudomonas aeruginosa) in the same assay as above. Conditions: not given.
Type: cell-based
Source text: as §2

Compound | Antibacterial activity of the compound of Formula I, ATCC9027
CC(C)(C)c1ccccc1-c1coc(N=C(N)N)n1 [Compound I-10] | 256 µg/mL
Cc1sc(N=C2NCCCN2)nc1-c1cc(C(C)C)cc(C(C)C)c1 [Compound I-167] | 256 µg/mL
COc1ccc(Oc2cccc(-c3csc(N=C(N)N)n3)c2)c(OC)c1 [Compound I-98] | 256 µg/mL
Cc1ccc2c(-c3coc(N=C(N)N)n3)cccc2c1 [Compound I-59] | 256 µg/mL
CNc1cc(C)cc(-c2csc(N=C(N)N)n2)c1 [Compound I-23] | 256 µg/mL
CSc1cc2cc(C)cc(C)n2c1-c1nc(N=C(N)N)oc1C [Compound I-128] | 256 µg/mL
NC(N)=Nc1nc(-c2ccc(Oc3ccccc3)cc2)cs1 [Compound I-3] | 256 µg/mL
CCc1sc(N=C2NCCCN2)nc1-c1c(SC)cc2ccc(C)cn12 [Compound I-193] | 256 µg/mL
CSc1cc2c(C)cccn2c1-c1c[se]c(N=C2NCCCN2)n1 [Compound I-191] | 256 µg/mL
